Results reported in patent US20140142180A1, “METHODS OF TREATING TUMORS HAVING ELEVATED MCT1 EXPRESSION” (Whitehead Institute for Biomedical Research, priority 2012, published 2014).
“Also recorded” adds a separate entry of the source.

Key:
ER negative cells = assay: 3-BrPA sensitivity of ER negative tumor cell lines; type: cell-based; settings: MCT1 expressed at high levels
MDA-MB-231 cells [1] = assay: Cell survival assay, MDA-MB-231; type: cell-based, human
Procedure: (§1) Cell lines (5,000-20,000) were seeded in 96-well plates and treated with indicated amounts of 3-BrPA. After 3 days of treatment, CellTiter-Glo (Promega) and/or CyQuant (Invitrogen) were used to measure survival percentage for each concentration compared to untreated cells. FACS analysis with Annexin V and 7AAD staining was performed according to manufacturer's manual (BD Pharmingen).
(§2) 15 cell lines (BT-474, BT-549, CAK1-1, CAL-51, HCC-70, HS578T, JURKAT, MDA-MB-157, MDA-MB-231, MDA-MB-453, MDA-MB-468, PC-3, SK-BR-3, T47D, ZR-75-1) were treated with 3-BrPA (0-300 μM). After 3 days, cell viability was quantified via CellTiter-Glo assay and an IC50 from the resulting dose-response curve was interpolated using a nonlinear regression model. Transcriptome-wide normalized mRNA levels from gene expression profiling experiments performed on the Affymetrix Human Genome U133 Plus 2.0 chip were obtained from the CCLE for all 15 cell lines. The mRNA expression pattern across all 15 samples for each of the genes was then correlated with the IC50 values. Similar correlation analysis was performed using OCR/ECAR values for each cell line.

MCT1-null cells = assay: 14C-3-BrPA uptake assay, MCT1-null KBM7 cells; type: cell-based, human; settings: MCT1-null compared to parental KBM7 cells
Procedure: (§3) Wild type KBM7 or MCT1-null cells were seeded in HBSS and exposed for up to 20 minutes to 100 μM ^14C-labeled 3-BrPA (6.8 mCi/mmole) (Moravek) with or without competitor molecules like 3-BrPA, Pyruvate, L-Lactate and D-Lactate. Cells were washed with cold HBSS, lysed in a NaOH buffer, and uptake measured using a liquid scintillation counter.

T47D cells = assay: Cell survival assay, T47D; type: cell-based, human; settings: low MCT1 level
Procedure: as §1, §2

MDA-MB-231 cells [2] = assay: 14C-3-BrPA uptake, parental and MCT1-overexpressing MDA-MB-231 cells; type: cell-based, human; settings: MCT1-overexpressing vs parental MDA-MB-231
MCT1 = target: T1, MCT1 (Homo sapiens, UniProt P53985); assay: 14C-3-BrPA uptake assay, wild type KBM7 cells; type: cell-based
T1 construct: endogenous in cells; host or cells: wild type KBM7 cells (near-haploid human cell line)
T1 sequence (P53985 1-500): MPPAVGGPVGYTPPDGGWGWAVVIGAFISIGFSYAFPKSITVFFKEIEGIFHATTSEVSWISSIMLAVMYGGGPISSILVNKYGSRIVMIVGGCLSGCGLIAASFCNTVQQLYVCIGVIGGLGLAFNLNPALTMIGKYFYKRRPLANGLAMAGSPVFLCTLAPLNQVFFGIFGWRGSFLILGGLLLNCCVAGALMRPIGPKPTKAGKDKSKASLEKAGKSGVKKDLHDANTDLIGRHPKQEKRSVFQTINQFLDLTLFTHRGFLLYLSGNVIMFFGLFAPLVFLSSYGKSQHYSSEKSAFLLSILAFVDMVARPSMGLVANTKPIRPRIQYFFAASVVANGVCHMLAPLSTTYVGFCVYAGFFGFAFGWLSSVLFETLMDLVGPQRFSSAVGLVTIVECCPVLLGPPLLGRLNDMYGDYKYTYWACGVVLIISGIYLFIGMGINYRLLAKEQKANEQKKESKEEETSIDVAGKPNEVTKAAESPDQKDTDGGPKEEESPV
T1 sequence (P35613 140-385 partner limits assumed): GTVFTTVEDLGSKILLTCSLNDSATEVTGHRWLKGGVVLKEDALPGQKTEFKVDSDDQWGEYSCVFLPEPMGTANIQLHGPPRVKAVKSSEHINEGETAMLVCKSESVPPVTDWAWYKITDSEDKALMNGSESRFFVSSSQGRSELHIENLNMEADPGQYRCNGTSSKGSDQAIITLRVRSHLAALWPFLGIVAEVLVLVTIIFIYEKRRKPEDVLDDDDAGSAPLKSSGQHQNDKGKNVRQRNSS
Procedure: as §3

KBM7 cells = assay: Cell survival assay, wild type (parental) KBM7 cells; type: cell-based, human; settings: 50 μM, 3 days of treatment
Procedure: A haploid cell genetic screen with 3-BrPA was performed using 100 million mutagenized KBM7 cells as described previously^29. Mutagenized haploid KBM-7 cells were exposed to 50 μM 3-BrPA for 3 weeks. Surviving clones were harvested and genomic DNA was isolated and insertions were amplified. The sequences flanking retroviral insertion sites were mapped to the human genome using inverse PCR followed by Ilium in a sequencing. Genomic regions with a high density of insertions were identified using the proximity index for a given insertion. Additionally, the statistical enrichment of insertions at a given locus in the selected population was calculated by comparing the number of inactivating insertions to those in the untreated control dataset via a Fisher's Exact Test. Individual clones were isolated among 50 different clones and genomic DNA for individually selected clones were isolated using a genomic DNA isolation kit (Qiagen). Genomic insertions were identified by inverse PCR and subsequent sequencing as described previously^24.
Cell lines (5,000-20,000) were seeded in 96-well plates and treated with indicated amounts of 3-BrPA. After 3 days of treatment, CellTiter-Glo (Promega) and/or CyQuant (Invitrogen) were used to measure survival percentage for each concentration compared to untreated cells. […]

MT-3 cells = assay: Cell survival assay, MT-3; type: cell-based, human; settings: MT-3, increased MCT1 level
Procedure: as §1

breast cancer lines = assay: 3-BrPA sensitivity versus MCT1 protein level in breast cancer lines; type: cell-based, human
Procedure: as §1
Briefly, cells were rinsed twice in ice-cold PBS and harvested in a standard lysis buffer containing 50 mM Hepes, pH 7.4, 40 mM NaCl, 2 mM EDTA, 1.5 mM orthovanadate, 50 mM NaF, 10 mM pyrophosphate, 10 mM glycerophosphate, protease inhibitors (Roche) and 1% Triton-X-100. Proteins from total lysates were resolved by 8-12% SDS-PAGE, and analyzed by immunoblotting as described using anti-MCT1 (Millipore; Ab3540), anti-RPS6 and anti-raptor antibodies (1:1000)^50. For quantitation, ImageJ software was used and the signals were normalized using an equal loading control (RPS6/Raptor). Immunohistochemistry was performed on formalin-fixed paraffin embedded sections using a boiling Dako antigen retrieval method (Dako). A 1:500 dilution of the anti-MCT1 antibody was used for staining.

SK-BR-3 cells = assay: Cell survival assay, SK-BR-3; type: cell-based, human
Procedure: as §1, §2

O=C(O)C(=O)CBr [3-BrPA, 3-bromopyruvic acid]
sensitivity to 3-BrPA (ER negative cells): highly sensitive | sensitivity to 3-BrPA (MDA-MB-231 cells [1]; MDA-MB-231, low MCT1 level): resistant | sensitivity to 3-BrPA with stable expression of MCT1 (MDA-MB-231 cells [1]; MDA-MB-231 stably expressing MCT1 cDNA): sufficient to sensitize | uptake of 14C-labeled 3-BrPA (MCT1-null cells): did not take up | sensitivity to 3-BrPA (T47D cells): resistant | 14C-3-BrPA uptake with MCT1 expression (MDA-MB-231 cells [2]): enhance | 3-BrPA uptake on reduction in extracellular pH (MCT1; wild type KBM7, radiolabeled 3-BrPA, 20 minutes): enhanced | competition with the uptake of radiolabeled 3-BrPA (MCT1; wild type KBM7 in HBSS, up to 20 minutes, unlabeled competitor): effectively competed | sensitivity to 3-BrPA (cell death) (KBM7 cells): induce cell death accompanied by caspase-3 activation; also recorded: sensitive | sensitivity to 3-BrPA (MT-3 cells): sensitive | sensitivity to 3-BrPA (breast cancer lines; breast cancer lines with high MCT1 protein levels): sensitive | sensitivity to 3-BrPA (breast cancer lines; breast cancer lines with low to no MCT1): resistant to even high concentrations | sensitivity to 3-BrPA (SK-BR-3 cells; SK-BR-3, low MCT1 level): resistant | sensitivity to 3-BrPA with stable expression of MCT1 (SK-BR-3 cells; SK-BR-3 stably expressing MCT1 cDNA): sufficient to sensitize
